Source: ChEMBL document CHEMBL1201862, “PubChem BioAssay data set” (2004)
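Step 1: Grow cells in 96-well plates. Step 2: Expose to compound for 48 hours at 5 concentrations. Step 3: Interpolate endpoints linearly; if unreached, use highest concentration. Here, GI50 denotes the concentration required for 50% inhibition of growth.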 Activity calls are given as the source filed them. No stated cut-off is given here; in the data, active = GI50 up to about 1.1 µM and inactive = higher.

Experiments:
Test in all cases: inhibition of tumour cell growth, NCI panel, 48 h
SK-MEL-28 = test system: SK-MEL-28
UO-31 = test system: UO-31
OVCAR-3 = test system: OVCAR-3
UACC-257 = test system: UACC-257
RXF 393 = test system: RXF 393
HOP-92 = test system: HOP-92
SW-620 = test system: SW-620
NCI-H460 = test system: NCI-H460
SNB-75 = test system: SNB-75
NCI-H522 = test system: NCI-H522
DLD-1 = test system: DLD-1
SN12C = test system: SN12C
CAKI-1 = test system: CAKI-1
A549 = test system: A549
OVCAR-4 = test system: OVCAR-4
A498 = test system: A498
HCT-15 = test system: HCT-15
HCT-116 = test system: HCT-116

Structure (SMILES)	GI50 (SK-MEL-28)	GI50 (UO-31)	GI50 (OVCAR-3)	GI50 (UACC-257)	GI50 (RXF 393)	GI50 (HOP-92)	GI50 (SW-620)	GI50 (NCI-H460)	GI50 (SNB-75)	GI50 (NCI-H522)	GI50 (DLD-1)	GI50 (SN12C)	GI50 (CAKI-1)	GI50 (A549)	GI50 (OVCAR-4)	GI50 (A498)	GI50 (HCT-15) [µM]	GI50 (HCT-116)
CCCCCCCCCCCCC(CC)CCCCC(=O)O (stereo not given)	> 100 µM (inactive)	> 100 µM (inactive)	> 100 µM (inactive)	> 100 µM (inactive)	> 60 µM (inactive)	> 73.3 µM (inactive)	> 61.2 µM (inactive)	> 62.4 µM (inactive)	> 100 µM (inactive)	> 100 µM (inactive)	> 100 µM (inactive)	> 83 µM (inactive)	> 100 µM (inactive)	> 100 µM (inactive)	> 100 µM (inactive)	> 100 µM (inactive)	> 100	> 53.1 µM (inactive)
COc1ccc(C(=C[N+](=O)[O-])c2ccc(OC)cc2)cc1	16.2 µM (inactive)	17.7 µM (inactive)	14.1 µM (inactive)	8.59 µM (inactive)	12.3 µM (inactive)	25.4 µM (inactive)	4.02 µM (inactive)	10.7 µM (inactive)	1.87 µM (inactive)	4.45 µM (inactive)	16.7 µM (inactive)	24 µM (inactive)	11.6 µM (inactive)	13.6 µM (inactive)	34.4 µM (inactive)	8.2 µM (inactive)	8.05	8.05 µM (inactive)
O=C(/C=C\c1cccc2ccccc12)c1ccc(Br)cc1	12.1 µM (inactive)	19.1 µM (inactive)	18.4 µM (inactive)	22.3 µM (inactive)		36.5 µM (inactive)	12.1 µM (inactive)	18.4 µM (inactive)	21.7 µM (inactive)	21 µM (inactive)	20.5 µM (inactive)	34.8 µM (inactive)	33 µM (inactive)	> 100 µM (inactive)	16.4 µM (inactive)	> 100 µM (inactive)	17.7	16.7 µM (inactive)
CCOC(=O)C1=C(Nc2ccccc2)SC/C1=N\NC(=O)Cc1ccccc1	> 100 µM (inactive)	> 100 µM (inactive)	> 100 µM (inactive)	> 100 µM (inactive)	> 100 µM (inactive)	> 100 µM (inactive)	> 100 µM (inactive)	> 100 µM (inactive)	> 100 µM (inactive)	> 100 µM (inactive)	> 100 µM (inactive)	> 100 µM (inactive)	> 100 µM (inactive)	> 100 µM (inactive)	> 100 µM (inactive)	> 100 µM (inactive)	> 100	> 100 µM (inactive)
O=C(Nc1ccc(Sc2ccc(/N=N/c3c(O)c(S(=O)(=O)O)cc4cc(S(=O)(=O)O)ccc34)cc2)cc1)c1ccc(/N=N/c2c(O)ccc3c(S(=O)(=O)O)cc(S(=O)(=O)O)cc23)cc1	48.1 µM (inactive)	41.2 µM (inactive)	19.8 µM (inactive)	11.2 µM (inactive)	50.6 µM (inactive)	78 µM (inactive)	38.5 µM (inactive)	28.1 µM (inactive)	> 100 µM (inactive)	13.4 µM (inactive)	37.7 µM (inactive)	42.2 µM (inactive)	43.8 µM (inactive)	28.4 µM (inactive)	33.8 µM (inactive)	26 µM (inactive)	27.5	49.3 µM (inactive)
COc1cc2c(cc1OC)C1(c3ccccc3)ON=C(c3ccccc3)N1CS2 (stereo not given)	> 100 µM (inactive)	> 100 µM (inactive)	> 100 µM (inactive)	> 100 µM (inactive)	63 µM (inactive)	39.4 µM (inactive)	> 100 µM (inactive)	> 100 µM (inactive)	> 100 µM (inactive)	> 100 µM (inactive)	> 100 µM (inactive)	> 100 µM (inactive)	> 100 µM (inactive)	> 100 µM (inactive)	> 100 µM (inactive)	> 100 µM (inactive)	> 100	28.7 µM (inactive)
CCOC(=O)C1Cc2ccc3c4c(ccc(c24)C1)CC(C(=O)OCC)C3	> 100 µM (inactive)	> 100 µM (inactive)	> 100 µM (inactive)	> 100 µM (inactive)	> 100 µM (inactive)	> 100 µM (inactive)	> 100 µM (inactive)		> 100 µM (inactive)	> 100 µM (inactive)	> 100 µM (inactive)	> 100 µM (inactive)		> 100 µM (inactive)		> 100 µM (inactive)	> 100	> 100 µM (inactive)
COc1ccc2c(=O)c([Se]c3coc4cc(OC)ccc4c3=O)coc2c1	52.1 µM (inactive)	57.4 µM (inactive)	> 100 µM (inactive)	> 100 µM (inactive)	48.6 µM (inactive)	> 100 µM (inactive)	> 100 µM (inactive)	18.7 µM (inactive)	20.8 µM (inactive)	> 100 µM (inactive)	36.6 µM (inactive)	54.5 µM (inactive)	> 100 µM (inactive)	32.6 µM (inactive)	44.6 µM (inactive)	57.3 µM (inactive)	50.9	19.8 µM (inactive)
Cc1cc2occ(C)c(=O)c2c2c1OC(C)(C)S2	> 100 µM (inactive)	> 100 µM (inactive)	> 100 µM (inactive)	> 100 µM (inactive)	88.1 µM (inactive)	55.3 µM (inactive)	> 100 µM (inactive)	> 100 µM (inactive)	88.5 µM (inactive)	47.6 µM (inactive)	> 100 µM (inactive)	> 100 µM (inactive)		> 100 µM (inactive)	> 100 µM (inactive)		> 100	> 100 µM (inactive)
CN/C(=N\C#N)N(Cc1ccccc1)Cc1ccccc1	> 100 µM (inactive)	> 100 µM (inactive)	> 100 µM (inactive)	> 100 µM (inactive)		> 100 µM (inactive)	> 100 µM (inactive)	> 100 µM (inactive)	> 100 µM (inactive)	> 100 µM (inactive)	> 100 µM (inactive)	> 100 µM (inactive)	> 100 µM (inactive)	> 100 µM (inactive)	> 100 µM (inactive)	> 100 µM (inactive)	> 100	> 100 µM (inactive)
COc1cc2c(c(OC)c1OC)-c1ccc(SC)c(=O)cc1[C@@H](NCc1cccc(C#N)c1)CC2	0.0221 µM (active)	0.308 µM (active)	0.0168 µM (active)	0.0448 µM (active)	0.00408 µM (active)	0.0401 µM (active)	0.0132 µM (active)	0.0268 µM (active)	0.00516 µM (active)	0.0142 µM (active)	0.0245 µM (active)	0.0313 µM (active)	0.0075 µM (active)	0.0345 µM (active)	0.0075 µM (active)	0.0161 µM (active)	0.0239	0.0173 µM (active)
CCOC(=O)CC(NC(=O)c1nc[nH]c1[N+](=O)[O-])C(=O)OCC (stereo not given)	> 100 µM (inactive)	77.6 µM (inactive)	38.6 µM (inactive)	34.1 µM (inactive)			37.2 µM (inactive)	52 µM (inactive)	> 100 µM (inactive)	48.9 µM (inactive)	39 µM (inactive)	42.5 µM (inactive)	47 µM (inactive)	60.1 µM (inactive)	50.7 µM (inactive)	61.7 µM (inactive)	78.5	43.4 µM (inactive)
COc1ccc(/C=N/N=C(\N)NO)c(OC)c1C	5.57 µM (inactive)	10.2 µM (inactive)	7.96 µM (inactive)	22.2 µM (inactive)	12.2 µM (inactive)	19.8 µM (inactive)	22.8 µM (inactive)	15.6 µM (inactive)		12.5 µM (inactive)	29 µM (inactive)	26 µM (inactive)	8.49 µM (inactive)	10.9 µM (inactive)	22.9 µM (inactive)	25.4 µM (inactive)	9.14	24.5 µM (inactive)
CCCCCCCCCCCC(=O)OCC1OC(OC)C(NC(=O)N(CCCl)N=O)C(O)C1O (stereo not given)	15.8 µM (inactive)	16.7 µM (inactive)	16.3 µM (inactive)	14.3 µM (inactive)	13.3 µM (inactive)		4.27 µM (inactive)	5.22 µM (inactive)	14.1 µM (inactive)	10.3 µM (inactive)	17.5 µM (inactive)	11.6 µM (inactive)	> 100 µM (inactive)	12.5 µM (inactive)	17.8 µM (inactive)	18.7 µM (inactive)	27.2	13.2 µM (inactive)
COc1ccc(CN(O)C2C(CO)OC(n3cc(I)c(=O)[nH]c3=O)C2O)cc1 (stereo not given)	> 100 µM (inactive)	> 100 µM (inactive)	> 100 µM (inactive)	> 100 µM (inactive)	> 100 µM (inactive)	> 100 µM (inactive)	> 100 µM (inactive)	> 100 µM (inactive)	> 100 µM (inactive)	> 100 µM (inactive)	> 100 µM (inactive)	> 100 µM (inactive)	> 100 µM (inactive)	> 100 µM (inactive)	> 100 µM (inactive)	> 100 µM (inactive)	> 100	> 100 µM (inactive)
O=C1CCN2CCC(=O)c3c2c(cc2ccccc32)N1		75.5 µM (inactive)	> 100 µM (inactive)	> 100 µM (inactive)	44.7 µM (inactive)		> 100 µM (inactive)	> 100 µM (inactive)	> 100 µM (inactive)	> 100 µM (inactive)	> 100 µM (inactive)	> 100 µM (inactive)	> 100 µM (inactive)	> 100 µM (inactive)		> 100 µM (inactive)	> 100	> 100 µM (inactive)
O=C1CCC2(O)c3ccccc3C2Cc2ccccc21 (stereo not given)	> 100 µM (inactive)		> 100 µM (inactive)	> 100 µM (inactive)	> 100 µM (inactive)	70.1 µM (inactive)	> 100 µM (inactive)	> 100 µM (inactive)	63.8 µM (inactive)		> 100 µM (inactive)	> 100 µM (inactive)						> 100 µM (inactive)
